Columns and labels:
Type in all cases: in vivo
Conditions in all cases: wettable powder applied 3 days after transplanting, judged after 25 days
[1] = system: annual broad-leaved weeds (Lindernia spp., Rotala indica); test: Test Example 1: herbicidal effects, paddy-field pot test
In short: (§1)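 Paddy soil pots sown with dormancy-broken weed seeds mixed into the top 1 cm, plus germinated Cyperus serotinus tubers and transplanted 2.2-leaf rice seedlings, grown flooded in a greenhouse. Water-diluted wettable powder applied 3 days after transplanting; growth inhibition scored 25 days later on a 0–5 scale (0 = 0–10%, 5 = 91–100%).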

[2] = system: barnyardgrass (Echinochloa oryzicola Vasing.); test: as above
In short: as §1

Scirpus joncoides = test: as above
In short: as §1

Cyperus serotinus = test: as above
In short: as §1

[3] = system: transplanted paddy-field rice; test: Test Example 1: crop injury against transplanted paddy-field rice
In short: as §1

Structure (SMILES): Oc1cc(Cl)nnc1Oc1cc(F)ccc1C1CC1 [Example 216]
- Herbicidal effects Broad leaf ([1]; chemical dosage 10 g/a): 5 (Growth inhibition rate; 91 to 100%)
- Herbicidal effects Broad leaf ([1]; chemical dosage 20 g/a): 5 (Growth inhibition rate; 91 to 100%)
- Herbicidal effects Barnyard grass ([2]; chemical dosage 10 g/a): 4 (Growth inhibition rate; 71 to 90%)
- Herbicidal effects Barnyard grass ([2]; chemical dosage 20 g/a): 4 (Growth inhibition rate; 71 to 90%)
- Herbicidal effects Scirpus joncoides (Scirpus joncoides; chemical dosage 10 g/a): 5 (Growth inhibition rate; 91 to 100%)
- Herbicidal effects Scirpus joncoides (Scirpus joncoides; chemical dosage 20 g/a): 5 (Growth inhibition rate; 91 to 100%)
- Herbicidal effects Cyperus serotinus (Cyperus serotinus; chemical dosage 10 g/a): 5 (Growth inhibition rate; 91 to 100%)
- Herbicidal effects Cyperus serotinus (Cyperus serotinus; chemical dosage 20 g/a): 5 (Growth inhibition rate; 91 to 100%)
- Crop injury against transplanted rice ([3]; chemical dosage 10 g/a): 0 (Growth inhibition rate; 0 to 10%)
- Crop injury against transplanted rice ([3]; chemical dosage 20 g/a): 2 (Growth inhibition rate; 31 to 50%)

Structure (SMILES): Oc1cc(Cl)nnc1Oc1cc(Cl)ccc1C1CC1 [Example 217]
- Herbicidal effects Broad leaf ([1]; chemical dosage 10 g/a): 5 (Growth inhibition rate; 91 to 100%)
- Herbicidal effects Broad leaf ([1]; chemical dosage 20 g/a): 5 (Growth inhibition rate; 91 to 100%)
- Herbicidal effects Barnyard grass ([2]; chemical dosage 10 g/a): 2 (Growth inhibition rate; 31 to 50%)
- Herbicidal effects Barnyard grass ([2]; chemical dosage 20 g/a): 4 (Growth inhibition rate; 71 to 90%)
- Herbicidal effects Scirpus joncoides (Scirpus joncoides; chemical dosage 10 g/a): 5 (Growth inhibition rate; 91 to 100%)
- Herbicidal effects Scirpus joncoides (Scirpus joncoides; chemical dosage 20 g/a): 5 (Growth inhibition rate; 91 to 100%)
- Herbicidal effects Cyperus serotinus (Cyperus serotinus; chemical dosage 10 g/a): 5 (Growth inhibition rate; 91 to 100%)
- Herbicidal effects Cyperus serotinus (Cyperus serotinus; chemical dosage 20 g/a): 5 (Growth inhibition rate; 91 to 100%)
- Crop injury against transplanted rice ([3]; chemical dosage 10 g/a): 0 (Growth inhibition rate; 0 to 10%)
- Crop injury against transplanted rice ([3]; chemical dosage 20 g/a): 0 (Growth inhibition rate; 0 to 10%)

Structure (SMILES): Cc1ccc(C2CC2)c(Oc2nnc(Cl)cc2O)c1 [Example 218]
- Herbicidal effects Broad leaf ([1]; chemical dosage 10 g/a): 5 (Growth inhibition rate; 91 to 100%)
- Herbicidal effects Broad leaf ([1]; chemical dosage 20 g/a): 5 (Growth inhibition rate; 91 to 100%)
- Herbicidal effects Barnyard grass ([2]; chemical dosage 10 g/a): 0 (Growth inhibition rate; 0 to 10%)
- Herbicidal effects Barnyard grass ([2]; chemical dosage 20 g/a): 1 (Growth inhibition rate; 11 to 30%)
- Herbicidal effects Scirpus joncoides (Scirpus joncoides; chemical dosage 10 g/a): 5 (Growth inhibition rate; 91 to 100%)
- Herbicidal effects Scirpus joncoides (Scirpus joncoides; chemical dosage 20 g/a): 5 (Growth inhibition rate; 91 to 100%)
- Herbicidal effects Cyperus serotinus (Cyperus serotinus; chemical dosage 10 g/a): 5 (Growth inhibition rate; 91 to 100%)
- Herbicidal effects Cyperus serotinus (Cyperus serotinus; chemical dosage 20 g/a): 5 (Growth inhibition rate; 91 to 100%)
- Crop injury against transplanted rice ([3]; chemical dosage 10 g/a): 0 (Growth inhibition rate; 0 to 10%)
- Crop injury against transplanted rice ([3]; chemical dosage 20 g/a): 0 (Growth inhibition rate; 0 to 10%)

Structure (SMILES): Oc1cc(Cl)nnc1Oc1c(F)cccc1Cl [Example 232]
- Herbicidal effects Broad leaf ([1]; chemical dosage 10 g/a): 5 (Growth inhibition rate; 91 to 100%)
- Herbicidal effects Broad leaf ([1]; chemical dosage 20 g/a): 5 (Growth inhibition rate; 91 to 100%)
- Herbicidal effects Barnyard grass ([2]; chemical dosage 10 g/a): 4 (Growth inhibition rate; 71 to 90%)
- Herbicidal effects Barnyard grass ([2]; chemical dosage 20 g/a): 4 (Growth inhibition rate; 71 to 90%)
- Herbicidal effects Scirpus joncoides (Scirpus joncoides; chemical dosage 10 g/a): 3 (Growth inhibition rate; 51 to 70%)
- Herbicidal effects Scirpus joncoides (Scirpus joncoides; chemical dosage 20 g/a): 4 (Growth inhibition rate; 71 to 90%)
- Herbicidal effects Cyperus serotinus (Cyperus serotinus; chemical dosage 10 g/a): 4 (Growth inhibition rate; 71 to 90%)
- Herbicidal effects Cyperus serotinus (Cyperus serotinus; chemical dosage 20 g/a): 5 (Growth inhibition rate; 91 to 100%)
- Crop injury against transplanted rice ([3]; chemical dosage 10 g/a): 0 (Growth inhibition rate; 0 to 10%)
- Crop injury against transplanted rice ([3]; chemical dosage 20 g/a): 0 (Growth inhibition rate; 0 to 10%)

Structure (SMILES): Oc1cc(Cl)nnc1Oc1c(F)cccc1Br [Example 233]
- Herbicidal effects Broad leaf ([1]; chemical dosage 10 g/a): 4 (Growth inhibition rate; 71 to 90%)
- Herbicidal effects Broad leaf ([1]; chemical dosage 20 g/a): 5 (Growth inhibition rate; 91 to 100%)
- Herbicidal effects Barnyard grass ([2]; chemical dosage 10 g/a): 3 (Growth inhibition rate; 51 to 70%)
- Herbicidal effects Barnyard grass ([2]; chemical dosage 20 g/a): 4 (Growth inhibition rate; 71 to 90%)
- Herbicidal effects Scirpus joncoides (Scirpus joncoides; chemical dosage 10 g/a): 3 (Growth inhibition rate; 51 to 70%)
- Herbicidal effects Scirpus joncoides (Scirpus joncoides; chemical dosage 20 g/a): 5 (Growth inhibition rate; 91 to 100%)
- Herbicidal effects Cyperus serotinus (Cyperus serotinus; chemical dosage 10 g/a): 4 (Growth inhibition rate; 71 to 90%)
- Herbicidal effects Cyperus serotinus (Cyperus serotinus; chemical dosage 20 g/a): 5 (Growth inhibition rate; 91 to 100%)
- Crop injury against transplanted rice ([3]; chemical dosage 10 g/a): 0 (Growth inhibition rate; 0 to 10%)
- Crop injury against transplanted rice ([3]; chemical dosage 20 g/a): 0 (Growth inhibition rate; 0 to 10%)

Structure (SMILES): CCCc1cccc(F)c1Oc1nnc(Cl)cc1O [Example 234]
- Herbicidal effects Broad leaf ([1]; chemical dosage 12.5 g/a): 5 (Growth inhibition rate; 91 to 100%)
- Herbicidal effects Broad leaf ([1]; chemical dosage 25 g/a): 5 (Growth inhibition rate; 91 to 100%)
- Herbicidal effects Barnyard grass ([2]; chemical dosage 12.5 g/a): 0 (Growth inhibition rate; 0 to 10%)
- Herbicidal effects Barnyard grass ([2]; chemical dosage 25 g/a): 0 (Growth inhibition rate; 0 to 10%)
- Herbicidal effects Scirpus joncoides (Scirpus joncoides; chemical dosage 12.5 g/a): 3 (Growth inhibition rate; 51 to 70%)
- Herbicidal effects Scirpus joncoides (Scirpus joncoides; chemical dosage 25 g/a): 4 (Growth inhibition rate; 71 to 90%)
- Herbicidal effects Cyperus serotinus (Cyperus serotinus; chemical dosage 12.5 g/a): 5 (Growth inhibition rate; 91 to 100%)
- Herbicidal effects Cyperus serotinus (Cyperus serotinus; chemical dosage 25 g/a): 5 (Growth inhibition rate; 91 to 100%)
- Crop injury against transplanted rice ([3]; chemical dosage 12.5 g/a): 0 (Growth inhibition rate; 0 to 10%)
- Crop injury against transplanted rice ([3]; chemical dosage 25 g/a): 0 (Growth inhibition rate; 0 to 10%)

Structure (SMILES): CC(C)c1cccc(F)c1Oc1nnc(Cl)cc1O [Example 235]
- Herbicidal effects Broad leaf ([1]; chemical dosage 10 g/a): 5 (Growth inhibition rate; 91 to 100%)
- Herbicidal effects Broad leaf ([1]; chemical dosage 20 g/a): 5 (Growth inhibition rate; 91 to 100%)
- Herbicidal effects Barnyard grass ([2]; chemical dosage 10 g/a): 3 (Growth inhibition rate; 51 to 70%)
- Herbicidal effects Barnyard grass ([2]; chemical dosage 20 g/a): 3 (Growth inhibition rate; 51 to 70%)
- Herbicidal effects Scirpus joncoides (Scirpus joncoides; chemical dosage 10 g/a): 5 (Growth inhibition rate; 91 to 100%)
- Herbicidal effects Scirpus joncoides (Scirpus joncoides; chemical dosage 20 g/a): 5 (Growth inhibition rate; 91 to 100%)
- Herbicidal effects Cyperus serotinus (Cyperus serotinus; chemical dosage 10 g/a): 5 (Growth inhibition rate; 91 to 100%)
- Herbicidal effects Cyperus serotinus (Cyperus serotinus; chemical dosage 20 g/a): 5 (Growth inhibition rate; 91 to 100%)
- Crop injury against transplanted rice ([3]; chemical dosage 10 g/a): 0 (Growth inhibition rate; 0 to 10%)
- Crop injury against transplanted rice ([3]; chemical dosage 20 g/a): 0 (Growth inhibition rate; 0 to 10%)

Structure (SMILES): COc1cccc(F)c1Oc1nnc(Cl)cc1O [Example 239]
- Herbicidal effects Broad leaf ([1]; chemical dosage 20 g/a): 5 (Growth inhibition rate; 91 to 100%)
- Herbicidal effects Barnyard grass ([2]; chemical dosage 20 g/a): 0 (Growth inhibition rate; 0 to 10%)
- Herbicidal effects Scirpus joncoides (Scirpus joncoides; chemical dosage 20 g/a): 5 (Growth inhibition rate; 91 to 100%)
- Herbicidal effects Cyperus serotinus (Cyperus serotinus; chemical dosage 20 g/a): 4 (Growth inhibition rate; 71 to 90%)
- Crop injury against transplanted rice ([3]; chemical dosage 20 g/a): 0 (Growth inhibition rate; 0 to 10%)

Structure (SMILES): Oc1cc(Cl)nnc1Oc1c(Cl)cccc1Cl [Example 240]
- Herbicidal effects Broad leaf ([1]; chemical dosage 12.5 g/a): 5 (Growth inhibition rate; 91 to 100%)
- Herbicidal effects Broad leaf ([1]; chemical dosage 25 g/a): 5 (Growth inhibition rate; 91 to 100%)
- Herbicidal effects Barnyard grass ([2]; chemical dosage 12.5 g/a): 2 (Growth inhibition rate; 31 to 50%)
- Herbicidal effects Barnyard grass ([2]; chemical dosage 25 g/a): 3 (Growth inhibition rate; 51 to 70%)
- Herbicidal effects Scirpus joncoides (Scirpus joncoides; chemical dosage 12.5 g/a): 3 (Growth inhibition rate; 51 to 70%)
- Herbicidal effects Scirpus joncoides (Scirpus joncoides; chemical dosage 25 g/a): 4 (Growth inhibition rate; 71 to 90%)
- Herbicidal effects Cyperus serotinus (Cyperus serotinus; chemical dosage 12.5 g/a): 5 (Growth inhibition rate; 91 to 100%)
- Herbicidal effects Cyperus serotinus (Cyperus serotinus; chemical dosage 25 g/a): 5 (Growth inhibition rate; 91 to 100%)
- Crop injury against transplanted rice ([3]; chemical dosage 12.5 g/a): 0 (Growth inhibition rate; 0 to 10%)
- Crop injury against transplanted rice ([3]; chemical dosage 25 g/a): 0 (Growth inhibition rate; 0 to 10%)

Structure (SMILES): Oc1cc(Cl)nnc1Oc1c(Cl)cccc1I [Example 241]
- Herbicidal effects Broad leaf ([1]; chemical dosage 10 g/a): 5 (Growth inhibition rate; 91 to 100%)
- Herbicidal effects Broad leaf ([1]; chemical dosage 20 g/a): 5 (Growth inhibition rate; 91 to 100%)
- Herbicidal effects Barnyard grass ([2]; chemical dosage 10 g/a): 1 (Growth inhibition rate; 11 to 30%)
- Herbicidal effects Barnyard grass ([2]; chemical dosage 20 g/a): 3 (Growth inhibition rate; 51 to 70%)
- Herbicidal effects Scirpus joncoides (Scirpus joncoides; chemical dosage 10 g/a): 3 (Growth inhibition rate; 51 to 70%)
- Herbicidal effects Scirpus joncoides (Scirpus joncoides; chemical dosage 20 g/a): 4 (Growth inhibition rate; 71 to 90%)
- Herbicidal effects Cyperus serotinus (Cyperus serotinus; chemical dosage 10 g/a): 5 (Growth inhibition rate; 91 to 100%)
- Herbicidal effects Cyperus serotinus (Cyperus serotinus; chemical dosage 20 g/a): 5 (Growth inhibition rate; 91 to 100%)
- Crop injury against transplanted rice ([3]; chemical dosage 10 g/a): 0 (Growth inhibition rate; 0 to 10%)
- Crop injury against transplanted rice ([3]; chemical dosage 20 g/a): 0 (Growth inhibition rate; 0 to 10%)

Structure (SMILES): Cc1cccc(Cl)c1Oc1nnc(Cl)cc1O [Example 242]
- Herbicidal effects Broad leaf ([1]; chemical dosage 12.5 g/a): 5 (Growth inhibition rate; 91 to 100%)
- Herbicidal effects Broad leaf ([1]; chemical dosage 25 g/a): 5 (Growth inhibition rate; 91 to 100%)
- Herbicidal effects Barnyard grass ([2]; chemical dosage 12.5 g/a): 3 (Growth inhibition rate; 51 to 70%)
- Herbicidal effects Barnyard grass ([2]; chemical dosage 25 g/a): 4 (Growth inhibition rate; 71 to 90%)
- Herbicidal effects Scirpus joncoides (Scirpus joncoides; chemical dosage 12.5 g/a): 3 (Growth inhibition rate; 51 to 70%)
- Herbicidal effects Scirpus joncoides (Scirpus joncoides; chemical dosage 25 g/a): 4 (Growth inhibition rate; 71 to 90%)
- Herbicidal effects Cyperus serotinus (Cyperus serotinus; chemical dosage 12.5 g/a): 5 (Growth inhibition rate; 91 to 100%)
- Herbicidal effects Cyperus serotinus (Cyperus serotinus; chemical dosage 25 g/a): 5 (Growth inhibition rate; 91 to 100%)
- Crop injury against transplanted rice ([3]; chemical dosage 12.5 g/a): 0 (Growth inhibition rate; 0 to 10%)
- Crop injury against transplanted rice ([3]; chemical dosage 25 g/a): 0 (Growth inhibition rate; 0 to 10%)

Reference: patent US7964531B2, “3-phenoxy-4-pyridazinol derivatives and herbicidal composition containing the same” (Mitsui Chemicals Agro, Inc., priority 2001, dated 2011)
